≈ marks a conversion by molar mass, not a printed value. Read-outs that look alike come from different tables or passages of the source.
Tests used:
physchem [1] = conditions: pH 7.4, aqueous buffer, Solubility Dulbecco's PBS pH 7.4
[2] = system: NRK-52E, normal rat kidney cells; conditions: 24 h
HT29 = assay: cells; assay type: cell-based; conditions: Homo sapiens, HT-29, 48 h; for GI50 / IC (TGI): HT29, 48 hours exposure, SRB; for CC50: read-out: LC50, HT29, 48 hours exposure, SRB
Procedure, shortened: (§1)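 Seeding density 5×10^3 cells/well; attachment 18 h in drug-free medium; exposure 48 h, 10 to 10^−8 μg/ml. Fixation cold TCA 60 min at 4° C, SRB 10 min, absorbance 490 nm.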

A498 = assay: cells; assay type: cell-based; conditions: Homo sapiens; for CC50: A498, 48 h, read-out: LC50; for GI50 / IC (TGI): A498, 48 hours exposure, SRB
Procedure, shortened: as §1

SW-620 = assay: cells; assay type: cell-based; conditions: Homo sapiens; for CC50: SW-620, 48 h, read-out: LC50; for IC (TGI) / GI50: SW-620, 48 hours exposure, SRB; for GI50: read-out: GI50
Procedure, shortened: as §1

A549 = assay: cells; assay type: cell-based; conditions: Homo sapiens, A549, 48 h; for IC (TGI): read-out: TGI; for CC50: read-out: LC50, A549, 48 hours exposure, SRB
Procedure, shortened: as §1

MEL-28 = assay: cells; assay type: cell-based; conditions: Homo sapiens, SK-MEL-28, 48 h; for GI50 / IC (TGI): MEL-28, 48 hours exposure, SRB; for CC50: read-out: LC50, MEL-28, 48 hours exposure, SRB
Procedure, shortened: as §1

DU145 = assay: cells; assay type: cell-based; conditions: Homo sapiens, DU-145, 48 h; for GI50 / IC (TGI): DU145, 48 hours exposure, SRB; for CC50: read-out: LC50, DU145, 48 hours exposure, SRB
Procedure, shortened: as §1

MB231 = assay: cells; assay type: cell-based; conditions: Homo sapiens; for CC50: read-out: LC50; for IC (TGI): read-out: TGI
Procedure, shortened: as §1

MCF = assay: cells; assay type: cell-based; conditions: Homo sapiens; for CC50: 48 h, read-out: LC50; for GI50 / IC (TGI): MCF, 48 hours exposure, SRB; for IC (TGI): read-out: TGI
Procedure, shortened: as §1

CYP3A4 = CYP3A4 (Homo sapiens, UniProt P08684); assay: in vitro; conditions: CYP3A4 (% inhibition)
Sequence of CYP3A4 (P08684 whole entry): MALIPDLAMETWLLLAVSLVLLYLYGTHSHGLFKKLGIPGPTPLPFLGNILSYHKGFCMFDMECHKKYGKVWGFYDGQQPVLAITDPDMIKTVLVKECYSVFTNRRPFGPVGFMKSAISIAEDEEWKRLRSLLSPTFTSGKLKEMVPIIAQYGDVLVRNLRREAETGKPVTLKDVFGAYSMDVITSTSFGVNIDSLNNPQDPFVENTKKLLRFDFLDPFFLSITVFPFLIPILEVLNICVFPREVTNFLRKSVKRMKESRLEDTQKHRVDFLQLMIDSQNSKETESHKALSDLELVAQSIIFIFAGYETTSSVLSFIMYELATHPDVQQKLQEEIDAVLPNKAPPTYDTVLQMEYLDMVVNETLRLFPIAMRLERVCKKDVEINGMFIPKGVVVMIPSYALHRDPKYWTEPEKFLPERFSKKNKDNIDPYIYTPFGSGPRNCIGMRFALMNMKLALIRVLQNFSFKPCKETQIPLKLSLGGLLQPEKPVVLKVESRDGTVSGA
Description: For CYP3A4 inhibition assay, the compound were tested at 10 μM in duplicate with a 0.25% final concentration of both methanol and acetonitrile in presence of the fluorescent substrate BFC (50 μM). The conversion of the BFC (7-benzyloxy-4-trifluoromethylcoumarin) in HFC (7-hydroxy-4-trifluoromethylcoumarin) was determined spectro-fluormetry after incubation with the enzyme during 30 min at 37° C.
(§2) For both assays, the fluorescent intensity measured at t=0 is subtracted from that measured after the appropriate incubation time. The ratio of signal-to-noise is calculated by comparing the fluorescence in incubations containing the test compound to the control samples containing the same solvent vehicle. The percent of control activity is calculated and reported as percent inhibition.

(HEPG2) = conditions: human, 24 h, 30 μM
physchem [3] = conditions: pH 7.4, log D n-Octanol-Dulbecco's PBS pH 7.4
[4] = system: L8, normal rat skeletal muscle cells; conditions: 24 h
[5] = s9, 60 min, 1 μM
Description: The metabolic stability was determined used human liver S9 homogenate that including both microsomal and cytosolic enzyme activities. The test compound was diluted in methanol (0.625%) and acetonitrile (0.625%) at the concentration 1 μM and incubated in the human liver pool (protein=1 mg/mL) during 60 min at 37° C. Peak areas corresponding to all analytes (metabolic products) were determined by HPLC-MS/MS. Areas were recorded and ratios of peak areas of analytes to that of internal standard for each analyte were determined. The ratio of precursor compound remaining after 60 minutes and the amount remaining at time zero, expressed as percent, are reported as metabolic stability. Higher values mean higher metabolic stability.

CYP2D6 = CYP2D6 (Homo sapiens, UniProt P10635); assay: in vitro; conditions: CYP2D6 (% inhibition)
Sequence of CYP2D6 (P10635 whole entry): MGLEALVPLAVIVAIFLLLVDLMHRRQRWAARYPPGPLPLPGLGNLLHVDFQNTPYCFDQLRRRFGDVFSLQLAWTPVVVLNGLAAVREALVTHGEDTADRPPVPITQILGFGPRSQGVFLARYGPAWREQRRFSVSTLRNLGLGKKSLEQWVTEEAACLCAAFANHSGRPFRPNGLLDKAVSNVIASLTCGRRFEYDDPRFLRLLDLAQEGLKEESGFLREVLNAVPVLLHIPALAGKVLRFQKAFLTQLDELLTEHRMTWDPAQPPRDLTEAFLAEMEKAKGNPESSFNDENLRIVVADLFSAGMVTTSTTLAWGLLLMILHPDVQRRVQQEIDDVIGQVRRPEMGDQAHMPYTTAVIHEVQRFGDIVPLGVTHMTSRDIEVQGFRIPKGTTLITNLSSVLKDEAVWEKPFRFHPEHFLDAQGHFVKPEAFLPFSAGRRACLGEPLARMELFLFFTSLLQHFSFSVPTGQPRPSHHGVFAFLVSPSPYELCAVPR
Description: For CYP2D6 inhibition assay, the compound are tested at 10 μM in duplicate with a 0.25% final concentration of both methanol and acetonitrile in presence of the fluorescent substrate AMMC (3-[2-N,N-diethyl-N-methylammonium)ethyl]-7-methoxy-4-methylcoumarin) at the concentration of 1.5 μM). The conversion of the AMMC in AHMC (3-[2-N,N-diethyl-N-methylammonium)ethyl]-7-hydroxy-4-methylcoumarin) is determined spectrofluorimetry after incubation with the enzyme during 450 min at 37° C.
as §2

[6] = system: AML-12, normal mouse liver cells; conditions: 24 h
[7] = system: FDC-P1, normal mouse myelogeous stem cells; conditions: 24 h
Description: In order to assess the cytotoxicity of the drugs to normal cells, we used 96 well plates plated at a density of 5000 cells per well (except for the FDC-P1 which were plated at 12,000 cells per well) with normal cell lines (ATCC, Table 1) maintained as per the directions of the ATCC: AML-12, normal mouse liver cells; NRK-52E, normal rat kidney cells; L8, normal rat skeletal muscle cells; FDC-P1, normal mouse myelogeous stem cells; and H9c2 (2-1), normal rat cardiac muscle cells. The cells in each plate were permitted to settle overnight before adding the test drug.
To each well (100 μl medium) 10 μl of drug in media was added at varying concentrations (1×10-10-0.01 mg/ml final concentration) and further incubated overnight at 37° C. with 5% CO2. After 24 h the following assays were performed. All experiments were repeated at least 3 times and were assayed in duplicate.
MTS assay (CellTiter 96 aqueous) was performed according to the manufacturer's (Promega) directions (for all cell types). Cell viability (mitochondrial activity) is determined via enzymatic conversion of the formazan substrate.

[8] = system: H9c2 (2-1), normal rat cardiac muscle cells; conditions: 24 h
in vitro = conditions: human, Caco-2
Excerpt: The intestinal epithelium permeability is a critical characteristic that determines the rate and extent of human absorption and ultimately the bioavailability of a drug candidate. Caco-2 permeability assay allows a rapid assessment of membrane permeability and thus helps to rank-order compounds in terms of their absorption potential.
The Caco-2 cell line is a human colon adenocarcinoma cell line that differentiates in culture and resembles the epithelial lining of the human small intestine.
The apparent permeability coefficients (Papp) was determined in the apical-to-basolateral (A-to-B) direction across the cell monolayers (TC-7 sub-clone of the Caco-2) cultured on polycarbonate membrane filters. Compounds were tested at 50 μM with at a final DMSO concentration of 1%. Samples were analyzed by HPLC-MS or HPLC-MS/MS.
The test compound was added to the apical side and the Papp was determined based on the rate of appearance of the test compound in the basolateral side after 2 h-incubation. Two reference compounds, propranolol (highly permeable) and ranitidine (poorly permeable), are tested in each assay as controls.

[9] = A549, 48 hours exposure, SRB, read-out: GI50

Row | SMILES | solubility (physchem [1]) [µM] | Kidney [2] | GI50 (HT29) [nM] | IC (TGI) (HT29) [nM] | CC50 (HT29) [nM] | CC50 (A498) [nM] | GI50 (A498) [nM] | IC (TGI) (A498) [nM] | CC50 (SW-620) [nM] | IC (TGI) (SW-620) [nM] | GI50 (SW-620) [nM] | IC (TGI) (A549; A549, 48 hours exposure, SRB) [nM] | CC50 (A549) [nM] | GI50 (MEL-28) [nM] | IC (TGI) (MEL-28) [nM] | CC50 (MEL-28) [nM] | GI50 (DU145) [nM] | IC (TGI) (DU145) [nM] | CC50 (DU145) [nM] | CC50 (MB231; 48 h) [nM] | other results
1 | COc1c(C)cc2c(c1O)[C@@H]1C3[C@@H]4SC[C@]5(NCCc6c5[nH]c5c(OCc7ccccc7)cccc65)C(=O)COC[C@@H](c5c6c(c(C)c(OC(C)=O)c54)OCO6)N3[C@@H](O)[C@H](C2)N1C (stereo partly shown) [Compound 28] | < 1 | 8.37E−08 | 11.6 | 69.7 | 105 | 58.1 | 3.48 | 11.6 | 92.9 | 23.2 | 6.97 | 46.5 | 34.8 | 23.2 | 34.8 | 81.3 | 2.32 | 3.48 | 9.29 | 116 | GI50 (A549; [9]): 3.48 nM; IC (TGI) (MB231; 48 h): 9.29 nM; GI50 (MB231; MB231, 48 hours exposure, SRB): 3.48 nM; CC50 (MCF): 116 nM; GI50 (MCF): 5.81 nM; IC (TGI) (MCF): 23.2 nM; inhibition at 30 min, 10 µM (CYP3A4): 79%; Cell Viability (% inhibition) ((HEPG2)): 17 % inhibition; logD at 60 min (physchem [3]): > 4.6; Skeletal [4]: 1.45E−07; Human Liver S9 Metabolic Stability (% remaining) [5]: 33 % remaining; inhibition at 450 min, 10 µM (CYP2D6): 34%; Liver [6]: 1.42E−07; Myelo [7]: 2.00E−07; Heart [8]: 1.84E−07
2 | COc1c(C)cc2c(c1O)[C@@H]1C3[C@@H]4SC[C@]5(NCCc6c5[nH]c5ccc(OCc7ccccc7)cc65)C(=O)COC[C@@H](c5c6c(c(C)c(OC(C)=O)c54)OCO6)N3[C@@H](O)[C@H](C2)N1C (stereo partly shown) [Compound 29] | 1.59 (≈ 1.39 µg/mL) | 1.94E−08 | 23.2 | 69.7 | 105 | 116 | 3.48 | 11.6 | 105 | 69.7 | 23.2 | 34.8 | 92.9 | 23.2 | 34.8 | 81.3 | 23.2 | 34.8 | 92.9 | 116 | GI50 (A549; [9]): 23.2 nM; GI50 (MB231; MB231, 48 hours exposure, SRB): 23.2 nM; IC (TGI) (MB231; MB231, 48 hours exposure, SRB): 46.5 nM; CC50 (MCF): 116 nM; GI50 (MCF): 23.2 nM; IC (TGI) (MCF): 34.8 nM; inhibition at 30 min, 10 µM (CYP3A4): 55%; Cell Viability (% inhibition) ((HEPG2)): 29 % inhibition; logD at 60 min (physchem [3]): > 4.9; Skeletal [4]: 3.29E−07; Human Liver S9 Metabolic Stability (% remaining) [5]: 9 % remaining; inhibition at 450 min, 10 µM (CYP2D6): 27%; Liver [6]: 1.59E−08; Myelo [7]: 1.79E−08; Heart [8]: 7.22E−08
3 | COc1c(C)cc2c(c1O)[C@@H]1C3[C@@H]4SC[C@]5(NCCc6c5[nH]c5ccc(O)cc65)C(=O)COC[C@@H](c5c6c(c(C)c(OC(C)=O)c54)OCO6)N3[C@@H](O)[C@H](C2)N1C (stereo partly shown) [Compound 31] | 18.3 (≈ 14.3 µg/mL) | 4.27E−08 | 3.89 | 7.78 | 13 | 13 | 2.59 | 6.49 | 11.7 | 3.89 | 2.59 | 5.19 | 38.9 | 2.59 | 3.89 | 10.4 | 1.3 | 3.89 | 9.08 | 13 | GI50 (A549; [9]): 2.59 nM; GI50 (MB231; MB231, 48 hours exposure, SRB): 1.3 nM; IC (TGI) (MB231; MB231, 48 hours exposure, SRB): 5.19 nM; CC50 (MCF): 11.7 nM; GI50 (MCF): 2.59 nM; IC (TGI) (MCF): 5.19 nM; inhibition at 30 min, 10 µM (CYP3A4): 84%; Cell Viability (% inhibition) ((HEPG2)): 22 % inhibition; logD at 60 min (physchem [3]): 3.61; Skeletal [4]: 1.35E−08; Papp A→B at 2 h, 50 μM (in vitro): < 0.32 ×10⁻⁶ cm/s; Human Liver S9 Metabolic Stability (% remaining) [5]: 17 % remaining; Liver [6]: 1.89E−08; Myelo [7]: 3.18E−08; Heart [8]: 6.65E−08
4 | COc1c(C)cc2c(c1O)[C@@H]1C3[C@@H]4SC[C@]5(NCCc6c5[nH]c5cc(F)ccc65)C(=O)COC[C@@H](c5c6c(c(C)c(OC(C)=O)c54)OCO6)N3[C@@H](O)[C@H](C2)N1C (stereo partly shown) [Compound 32] | 14.3 (≈ 11.2 µg/mL) | 1.45E−07 | 7.76 | 25.9 | 103 | 51.7 | 2.59 | 9.06 | 129 | 25.9 | 5.17 | 25.9 | 90.6 | 2.59 | 10.3 | 25.9 | 1.29 | 2.59 | 3.88 | 90.6 | GI50 (A549): 3.88 nM; GI50 (MB231; MB231, 48 hours exposure, SRB): 2.59 nM; IC (TGI) (MB231; MB231, 48 hours exposure, SRB): 9.06 nM; CC50 (MCF): 129 nM; GI50 (MCF): 9.06 nM; IC (TGI) (MCF): 25.9 nM; inhibition at 30 min, 10 µM (CYP3A4): 83%; Cell Viability (% inhibition) ((HEPG2)): 39 % inhibition; logD at 60 min (physchem [3]): > 4.3; Skeletal [4]: 1.51E−08; Human Liver S9 Metabolic Stability (% remaining) [5]: 9 % remaining; inhibition at 450 min, 10 µM (CYP2D6): 12%; Liver [6]: 6.00E−07; Myelo [7]: 5.25E−07; Heart [8]: 2.42E−07
5 | CC(C)NCC(O)COc1cccc2ccccc12 (stereo not shown) [propranolol, reference compound] |  |  |  |  |  |  |  |  |  |  |  |  |  |  |  |  |  |  |  |  | Papp A→B at 2 h, 50 μM (in vitro): > 20 ×10⁻⁶ cm/s
6 | CNC(=C[N+](=O)[O-])NCCSCc1ccc(CN(C)C)o1 [ranitidine, reference compound] |  |  |  |  |  |  |  |  |  |  |  |  |  |  |  |  |  |  |  |  | Papp A→B at 2 h, 50 μM (in vitro): < 5 ×10⁻⁶ cm/s
